# Reference: patent publication US9539301B2, “Melanotropin ligands for skin care” (THE ARIZONA BOARD OF REGENTS ON BEHALF OF THE UNIVERSITY OF …, priority 2011, dated 2017)
# Entries after “also recorded” stand apart in the source; their conditions may differ. Square brackets hold non-standard residues; d marks the D form. Peptide text beside a SMILES is read from it. d2Nal = N[C@H](Cc1ccc2ccccc2c1)C(=O)O; Nle = CCCC[C@H](N)C(=O)O
# Legend:
# MC1R = MC1R (Homo sapiens, UniProt Q01726); conditions: cited from earlier work
# MC1R, sequence (Q01726 whole entry): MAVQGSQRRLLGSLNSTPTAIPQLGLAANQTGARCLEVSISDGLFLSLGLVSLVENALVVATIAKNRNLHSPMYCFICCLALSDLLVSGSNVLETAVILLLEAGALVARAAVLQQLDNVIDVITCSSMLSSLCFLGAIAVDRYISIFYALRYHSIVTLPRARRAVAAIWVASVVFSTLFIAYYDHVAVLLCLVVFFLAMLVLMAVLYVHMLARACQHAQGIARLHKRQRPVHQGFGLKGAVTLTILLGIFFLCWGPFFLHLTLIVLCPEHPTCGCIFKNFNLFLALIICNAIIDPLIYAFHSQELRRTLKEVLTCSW
# MC4R = MC4R (Homo sapiens, UniProt P32245); conditions: footnote: value denotes an EC50; read-out: EC50 MC4R (values derived from literature); cited from earlier work
# MC4R, sequence (P32245 whole entry): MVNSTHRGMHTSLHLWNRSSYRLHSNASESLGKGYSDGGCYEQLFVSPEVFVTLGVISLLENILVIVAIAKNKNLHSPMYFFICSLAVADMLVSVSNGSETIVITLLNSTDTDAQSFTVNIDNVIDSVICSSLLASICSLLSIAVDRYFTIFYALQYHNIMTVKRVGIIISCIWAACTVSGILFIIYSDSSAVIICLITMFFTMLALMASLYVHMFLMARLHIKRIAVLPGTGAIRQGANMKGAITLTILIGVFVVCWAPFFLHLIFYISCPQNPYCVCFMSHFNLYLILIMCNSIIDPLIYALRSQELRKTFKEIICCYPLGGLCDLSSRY
# MC5R = MC5R (Homo sapiens, UniProt P33032); conditions: footnote: value denotes an EC50; read-out: EC50 MC5R (values derived from literature); cited from earlier work
# MC5R, sequence (P33032 whole entry): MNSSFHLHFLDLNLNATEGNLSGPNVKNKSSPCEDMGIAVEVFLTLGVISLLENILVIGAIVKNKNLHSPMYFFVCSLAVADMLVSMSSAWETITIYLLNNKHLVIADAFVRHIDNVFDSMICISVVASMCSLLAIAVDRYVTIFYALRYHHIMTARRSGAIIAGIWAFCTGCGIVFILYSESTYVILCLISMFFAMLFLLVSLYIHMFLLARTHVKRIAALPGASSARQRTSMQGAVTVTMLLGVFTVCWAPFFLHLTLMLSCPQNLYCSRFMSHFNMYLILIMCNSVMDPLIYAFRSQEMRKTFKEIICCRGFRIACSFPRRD
# A375/MC1R cells = assay: In vitro MC1R probe uptake study (fluorescence microscopy); format: cell-based, human
# Procedure: Samples were viewed using an Axio Observer Z1 inverted fluorescence microscope (Carl Zeiss, Inc, Germany) using 40×/1.3NA oil immersion objectives through a narrow band Cy5 filter. Cy5 fluorescence images were prepared with a DIC overlay image using Axiovision 4.6 software (Carl Zeiss, Inc, Germany).
# To study uptake of the MC1R probe onto and into cells, MC1RL-800 probe was incubated with live cells and images were acquired at different time-points after incubation using an inverted microscope.
# [1] = tested on: A375/MC1R and A375 xenograft tumors; assay: Tumor xenograft fluorescence imaging, in vivo tumor targeting and blocking; set-up: species or system nu/nu mice
# Procedure: Female nu/nu mice 6-8 weeks old (Harlan Sprague Dawley, Inc., Indianapolis, Ind.) were injected subcutaneously (s.c.) with 1×10^6 MC1R expressing A375 cells in the right and the parental one in the left flank. Tumor volume was determined with calipers using the formula: volume=(length×width^2)/2. Once tumors reached 500-800 mm^3, 1 nmol/kg-30 nmol/kg of MC1R imaging probe in 100 µL sterile saline was injected into the tail vein. In vivo fluorescence images were acquired using the Optix-MX3 (Advance Research Technologies, Inc. a subsidiary of SoftScan Healthcare Group, Montreal, Canada). Animals were positioned on a heating pad and anesthetized using isoflurane (flow 2-2.5 l/min). Fluorescence images were acquired using a scan resolution of 1.5 mm and a 790-nm pulsed laser diode with 40 MHz frequency and 12-ns time window. Images were analyzed using Optix-MX3 Optiview Software (version 3.01). Autofluorescence background was subtracted by determining the mean tumor fluorescence signal prior to injection, then mean normalized intensity values were obtained within a ROI on these images.
# Tumors were excised and center slice of each tumor was imaged using both Optix-MX3 (as described above) and IVIS 200 imaging system (Caliper LifeSciences, MA). For IVIS 200 acquisitions, the standard ICG excitation and emission filter set was used for imaging. After imaging, the slices were fixed in formalin and embedded in paraffin for histology. Formalin fixed sections (5 µm) were stained with hematoxylin and eosin (H&E). […]
# To investigate tumor targeting of the probe in vivo, bilateral subcutaneous xenograft tumors were established with A375/MC1R engineered cells in the right flank, and A375 parental cells with relatively low MC1R expression in the left flank. After tumor growth to approximately 500-800 mm^3, MC1RL-800 was injected intravenously and fluorescence accumulation was monitored over time. […] IHC staining confirmed the high and low MC1R expression in the two tumor types, and areas with the highest IHC staining corresponded to areas with the highest fluorescence signal (FIG. 27B).
# [2] = format: physicochemical; conditions: pH 7.4
# Procedure: The log of the octanol-water partition coefficient at pH 7.4 (log D7.4) was determined by miniaturised shake flask assay. Briefly, (200 µL to 1 mL) n-octanol (Sigam) was added to a solution of the test compound prepared in PBS (25 mM NaH2PO4/Na2HPO4 buffer, pH 7.4, Sigma, HPLC grade). Then, three different ratios of octanol to PBS buffer were prepared. The mixture was stirred in a vortex mixer at room temperature for 1 min and then two layers were separated by centrifuge. The concentration of compound in each layer was determined by HPLC (Poroshell 120 EC-C18 column) using (26% acetonitrile in water, 0.1% TFA) in 280 nm channel. All sample injections were performed 3 times, and the results were averaged to yield the final values.
# To measure lipophilicity of the probe, log D (distribution co-efficient) was determined.
# [3] = mouse, in vivo, iv, 5 nmol/kg
# Procedure: (§1) Tumors, kidneys and liver were excised, rinsed with PBS, blotted dry, and then imaged ex vivo with Optix-MX3 as described above. Images were analyzed as described above.
# (§2) The pharmacokinetics of probe uptake and clearance was also characterized using a three-compartment mathematical model, which includes tumor, kidney and mouse volumes, and assumes mass conservation of the ligand. This model was used to account for the interference of the tumor ligand release in the uptake and clearance dynamics of blood and kidneys.
# [4] = mouse, in vivo
# Procedure: as §1, §2
# [5] = A375/MC1R cells, after incubation
# [6] = co-injection 0.25 μg NDP-a-MSH with 5 nmol/kg probe, 2 hr
smiles,measurement,setting,value
"NC(=O)[C@H](Cc1c[nH]c2ccccc12)NC(=O)[C@H](CCCN=C(N)N)NC(=O)[C@@H](Cc1ccccc1)NC(=O)[C@H](Cc1cnc[nH]1)NC(=O)CCCc1ccccc1 [Compound 1, 4-phenylbutyryl-His-DPhe-Arg-Trp-NH2]",Ki,MC1R; read-out: Ki MC1R (values derived from literature),0.01 nM
"CCCC[C@H](NC(=O)[C@@H](NC(=O)[C@@H](N)Cc1ccc(O)cc1)C(C)C)C(=O)NCC(=O)N[C@@H](Cc1cnc[nH]1)C(=O)N[C@H](Cc1ccc2ccccc2c1)C(=O)N[C@@H](CCCNC(=N)N)C(=O)N[C@H](Cc1ccccc1)C(=O)N[C@@H](CC(=O)O)C(=O)N[C@@H](CCCNC(=N)N)C(=O)N[C@@H](Cc1ccccc1)C(=O)NCC(N)=O [Compound 7, H-Tyr-Val-Nle-Gly-His-DNal(2′)-Arg-DPhe-Asp-Arg-Phe-Gly-NH2] (H-YV[Nle]GH[d2Nal]R[dF]DRFG-NH2)",EC50,"MC1R; footnote: value denotes an EC50, read-out: EC50 MC1R (values derived from literature)",1.6 nM
same,EC50,MC4R,20 nM
same,EC50,MC5R,3.3 nM
"CC1(C)C(=CC=C2CCCC(C=CC3=[N+](CCCCCC(=O)NCCN4C(=O)CC(SCCC(=O)NCCCC[C@H](NC(=O)CNC(=O)[C@H](Cc5c[nH]c6ccccc56)NC(=O)[C@H](CCCNC(=N)N)NC(=O)[C@@H](Cc5ccccc5)NC(=O)[C@H](Cc5c[nH]cn5)NC(=O)CCCc5ccccc5)C(N)=O)C4=O)c4ccc(S(=O)(=O)[O-])cc4C3(C)C)=C2Oc2ccc(S(=O)(=O)O)cc2)N(CCCCS(=O)(=O)O)c2ccc(S(=O)(=O)O)cc21 (stereo partly drawn) [MC1RL-800, 4-phenylbutyryl-His-DPhe-Arg-Trp-Gly-Lys(Mpr-IR800CW)-NH2]",probe binding after blocking with NDP-α-MSH,A375/MC1R cells; 2 μM NDP-α-MSH added before probe,No attachment; also recorded: No binding or uptake
same,time at which binding of probe to cell surface is observed,A375/MC1R cells; [5],≤ 15 s
same,time of intracellular accumulation / internalization,A375/MC1R cells; [5],≤ 5 min
same,normalized fluorescence signal of A375 (low MC1R) tumors compared to A375/MC1R tumors,"[1]; 2 h post-injection, n=3",significantly lower
same,"decrease of probe fluorescence signal after blocking, A375/MC1R tumors",[1]; [6],1.54 fold
same,"decrease of probe fluorescence signal after blocking, A375 tumor",[1]; [6],1.4 fold
same,logD,[2],-2.96
same,half-life,[3],~10 h
same,accumulation in the liver,[4],did not accumulate
same,kidney signal relative to tumor,[4],2 fold
